{"source": "paper PMC12432127", "about": "“Assessing the potential of bacterial signal peptides for radiopharmaceutical applications” (Scientific Reports, 2025)", "key": {"[1]": {"experiment": "Stability in human plasma (radio-HPLC)", "assay_type": "in vitro ADME", "conditions": "human plasma, 37 °C", "experimental": "The radiolabelled compound (50 µL) was added to male human AB plasma (500 µL, Sigma Aldrich, USA, male AB) and incubated at 37 °C. Samples of 100 µL were taken at selected time points. The plasma proteins were precipitated with acetonitrile (-20 °C) and the precipitate was centrifuged for 1 min at 1500 rpm. The supernatant was analyzed by analytical radio-HPLC."}, "FPR1": {"target": "T1, FPR1 (Homo sapiens, UniProt P21462)", "T1 construct": "expressed in transfected cells; host or cells: HEK293T (transient, jetPEI)", "T1 sequence (P21462 1-350)": "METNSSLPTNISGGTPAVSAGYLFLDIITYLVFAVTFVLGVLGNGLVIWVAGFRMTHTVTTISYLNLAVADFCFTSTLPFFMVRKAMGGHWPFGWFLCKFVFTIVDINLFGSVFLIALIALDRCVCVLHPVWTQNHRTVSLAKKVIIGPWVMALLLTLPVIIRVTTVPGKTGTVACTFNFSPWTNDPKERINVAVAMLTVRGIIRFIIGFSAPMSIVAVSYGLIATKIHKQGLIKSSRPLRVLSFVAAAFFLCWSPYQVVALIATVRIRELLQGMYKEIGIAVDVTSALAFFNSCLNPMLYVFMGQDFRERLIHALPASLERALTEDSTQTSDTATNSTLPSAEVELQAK", "experiment": "High-throughput calcium imaging (FLIPR), FPR1 transfected HEK293T cells", "assay_type": "cell-based", "conditions": "for Calicum signal (dF/F0): FPR1-HEK; for EC50: FPR1 transfected HEK293T cells, peak calcium response, read-out: EC50 Ca2+ mobilization", "experimental": "Cell transfection was performed approximately 24 h after seeding the cells, when they reached about 70% confluence. Transfection was carried out using jetPEI™ (Polyplus) according to the following protocol: 0.25 µg DNA was diluted in 10 µL NaCl (150 mM). 0.5 µL of jetPEI™ solution in 10 µL NaCl was mixed with the DNA solution and incubated at RT for 15–30 min. After incubation, 20 µL of the jetPEI™/DNA mixture was added dropwise to the cells, which were then placed in the cell culture incubator at 37 °C and 5% CO2. After 18 to 24 h of transfection, the medium was replaced, and 100 µL per well was added, then placed back in the incubator.\n(§1) Automated high-throughput Ca^2+ measurements using a fluorescence imaging plate reader (FLIPR, Molecular Devices) were performed. Briefly, […] were seeded in 96-well plates (~ 50,000 cells/well) one day before the experiments and incubated at 37 °C. HEK293T cells were co-transfected with the receptor or mock and the G protein Gα16 for 48 h. On the day of the experiments, the medium was removed, and the cells were loaded with a loading solution consisting of 2 µM Calbryte dye in C1 buffer (Calbryte 520AM, AAT Bioquest 20651) 50 µL per well, for at least 2 h at RT in the dark. After 2 h of loading with the fluorescent dye, the solution was removed, the plate was washed three times using an ELX50 washer (BioTek), and the intracellular release of calcium was measured using FLIPR. A Ca^2+ response was defined as an increase in the excitation ratio (340 nm/380 nm) that was at least four times higher than the mean baseline noise after bath application.\n(§2) The results are expressed as the means ± standard deviations of the number of the indicated determinations. Calcium measurement experiments were routinely performed as triplicates and averaged over at least three independent transfections. Response amplitudes (F/F0) were calculated by dividing maximal fluorescence change after ligand application by baseline fluorescence. Maximal amplitudes were set to 100%, and curves were calculated with Graph Pad Prism Version 10.1 (GraphPad Software, Boston, MA, USA). S.D. values were calculated as averages from independently obtained EC50 values using the STDEV. Data derived from experiments were analyzed by two-way ANOVA. P < 0.05 was accepted as significant."}, "U87-MG cells": {"tested_on": "U87-MG cells", "experiment": "Calcium imaging (FLIPR) in U87-MG cells", "assay_type": "cell-based, human", "conditions": "for EC50: U87-MG cells, read-out: EC50 Ca2+ flux; for Calicum signal (dF/F0): U87 cells", "experimental": "as §1, §2"}, "[2]": {"conditions": "Log Concentration (M) -6,5, single replicate values, listed as f-MVPIK(Ahx-DOTA-Ga)I"}, "[3]": {"conditions": "Log Concentration (M) -6, single replicate values, listed as f-MVPIK(Ahx-DOTA-Ga)I"}, "[4]": {"conditions": "Log Concentration (M) -7,5, single replicate values, listed as f-MVPIK(Ahx-DOTA-Ga)I"}, "[5]": {"conditions": "Log Concentration (M) -7, single replicate values, listed as f-MVPIK(Ahx-DOTA-Ga)I"}, "[6]": {"conditions": "Log Concentration (M) -8,5, single replicate values, listed as f-MVPIK(Ahx-DOTA-Ga)I"}, "[7]": {"conditions": "Log Concentration (M) -8, single replicate values, listed as f-MVPIK(Ahx-DOTA-Ga)I"}, "[8]": {"conditions": "Log Concentration (M) -9, single replicate values, listed as f-MVPIK(Ahx-DOTA-Ga)I"}, "[9]": {"conditions": "Log Concentration (M) -6,5, single replicate values, listed as f-MVPIK(Ahx-DOTA-Lu)I"}, "[10]": {"conditions": "Log Concentration (M) -6, single replicate values, listed as f-MVPIK(Ahx-DOTA-Lu)I"}, "[11]": {"conditions": "Log Concentration (M) -7,5, single replicate values, listed as f-MVPIK(Ahx-DOTA-Lu)I"}, "[12]": {"conditions": "Log Concentration (M) -7, single replicate values, listed as f-MVPIK(Ahx-DOTA-Lu)I"}, "[13]": {"conditions": "Log Concentration (M) -8,5, single replicate values, listed as f-MVPIK(Ahx-DOTA-Lu)I"}, "[14]": {"conditions": "Log Concentration (M) -8, single replicate values, listed as f-MVPIK(Ahx-DOTA-Lu)I"}, "[15]": {"conditions": "Log Concentration (M) -9, single replicate values, listed as f-MVPIK(Ahx-DOTA-Lu)I"}}, "note": "“And” between values parts separate entries of the source, which are not always exact repeats. Equal entries are not always repeated. Residues, ends and D or L forms follow the SMILES beside them. Groups on a side chain read outwards from the residue. *: point of attachment. DOTA = O=C(O)CN1CCN(CC(=O)O)CCN(CC(=O)*)CCN(CC(=O)O)CC1; Ahx = NCCCCCC(=O)O; For = O=C*", "data": [{"compound": "CC[C@H](C)[C@H](NC(=O)[C@H](CCCCNC(=O)CCCCCNC(=O)CN1CCN(CC(=O)O)CCN(CC(=O)O)CCN(CC(=O)O)CC1)NC(=O)[C@@H](NC(=O)[C@@H]1CCCN1C(=O)[C@@H](NC(=O)[C@H](CCSC)NC=O)C(C)C)[C@@H](C)CC)C(=O)O", "note": "[[^68Ga]Ga-f-MVPIK(Ahx-DOTA)I, metal not drawn] (For-MVPIK([Ahx-DOTA])I-OH)", "values": [{"measurement": "time stable in human plasma", "setting": "[1]", "result": "at least 4 h"}]}, {"compound": "CC[C@H](C)[C@H](NC(=O)[C@H](CCCCNC(=O)CCCCCNC(=O)CN1CCN(CC(=O)O)CCN(CC(=O)O)CCN(CC(=O)O)CC1)NC(=O)[C@@H](NC(=O)[C@@H]1CCCN1C(=O)[C@@H](NC(=O)[C@H](CCSC)NC=O)C(C)C)[C@@H](C)CC)C(=O)O", "note": "[^natGa-f-MVPIK(Ahx-DOTA)I, metal not drawn] (For-MVPIK([Ahx-DOTA])I-OH)", "values": [{"measurement": "Calicum signal (dF/F0)", "setting": "FPR1; [2]", "result": "0,85 and 0,8 and 0,68"}, {"measurement": "Calicum signal (dF/F0)", "setting": "FPR1; [3]", "result": "0,85 and 0,89 and 0,8"}, {"measurement": "Calicum signal (dF/F0)", "setting": "FPR1; [4]", "result": "0,66 and 0,52 and 0,6"}, {"measurement": "Calicum signal (dF/F0)", "setting": "FPR1; [5]", "result": "0,74 and 0,87 and 0,65"}, {"measurement": "Calicum signal (dF/F0)", "setting": "FPR1; [6]", "result": "0,12 and 0,27 and 0,23"}, {"measurement": "Calicum signal (dF/F0)", "setting": "FPR1; [7]", "result": "0,28 and 0,27 and 0,3"}, {"measurement": "Calicum signal (dF/F0)", "setting": "FPR1; [8]", "result": "0,14 and 0,13 and 0,12"}, {"measurement": "EC50", "setting": "FPR1", "result": "20 ± 1", "unit": "nM"}, {"measurement": "EC50", "setting": "U87-MG cells", "result": "29 ± 2.1", "unit": "nM"}, {"measurement": "Calicum signal (dF/F0)", "setting": "U87-MG cells; [2]", "result": "1,2 and 1,8 and 0,91 and 1,18 and 1,37"}, {"measurement": "Calicum signal (dF/F0)", "setting": "U87-MG cells; [3]", "result": "1,22 and 1,2 (2×) and 0,96 and 1,41"}, {"measurement": "Calicum signal (dF/F0)", "setting": "U87-MG cells; [4]", "result": "0,77 and 0,6 (2×) and 0,61 and 0,7"}, {"measurement": "Calicum signal (dF/F0)", "setting": "U87-MG cells; [5]", "result": "0,98 and 0,86 and 0,8 and 1,02 and 0,95"}, {"measurement": "Calicum signal (dF/F0)", "setting": "U87-MG cells; [6]", "result": "0,4 and 0,38 and 0,33 and 0,46 and 0,35"}, {"measurement": "Calicum signal (dF/F0)", "setting": "U87-MG cells; [7]", "result": "0,45 and 0,46 (2×) and 0,65 and 0,58"}, {"measurement": "Calicum signal (dF/F0)", "setting": "U87-MG cells; Log Concentration (M) -9,5, single replicate values, listed as f-MVPIK(Ahx-DOTA-Ga)I", "result": "0,04 and 0,02 (3×) and 0,01"}, {"measurement": "Calicum signal (dF/F0)", "setting": "U87-MG cells; [8]", "result": "0,11 (2×) and 0,17 and 0,14 and 0,13"}]}, {"compound": "CC[C@H](C)[C@H](NC(=O)[C@H](CCCCNC(=O)CCCCCNC(=O)CN1CCN(CC(=O)O)CCN(CC(=O)O)CCN(CC(=O)O)CC1)NC(=O)[C@@H](NC(=O)[C@@H]1CCCN1C(=O)[C@@H](NC(=O)[C@H](CCSC)NC=O)C(C)C)[C@@H](C)CC)C(=O)O", "note": "[^natLu-f-MVPIK(Ahx-DOTA)I, metal not drawn] (For-MVPIK([Ahx-DOTA])I-OH)", "values": [{"measurement": "Calicum signal (dF/F0)", "setting": "FPR1; [9]", "result": "0,91 and 0,74 and 0,82"}, {"measurement": "Calicum signal (dF/F0)", "setting": "FPR1; [10]", "result": "0,93 and 0,87 and 0,9"}, {"measurement": "Calicum signal (dF/F0)", "setting": "FPR1; [11]", "result": "0,7 and 0,5 and 0,6"}, {"measurement": "Calicum signal (dF/F0)", "setting": "FPR1; [12]", "result": "0,89 and 0,6 and 0,71"}, {"measurement": "Calicum signal (dF/F0)", "setting": "FPR1; [13]", "result": "0,31 and 0,28 and 0,34"}, {"measurement": "Calicum signal (dF/F0)", "setting": "FPR1; [14]", "result": "0,58 and 0,41 and 0,43"}, {"measurement": "Calicum signal (dF/F0)", "setting": "FPR1; [15]", "result": "0,13 and 0,23 and 0,2"}, {"measurement": "EC50", "setting": "FPR1", "result": "12 ± 1", "unit": "nM"}, {"measurement": "EC50", "setting": "U87-MG cells", "result": "10 ± 0.9", "unit": "nM"}, {"measurement": "Calicum signal (dF/F0)", "setting": "U87-MG cells; [9]", "result": "1,2 and 1,34 and 1 and 1,14 and 0,83"}, {"measurement": "Calicum signal (dF/F0)", "setting": "U87-MG cells; [10]", "result": "1,39 and 1,4 and 1,3 and 1,55 and 1,9"}, {"measurement": "Calicum signal (dF/F0)", "setting": "U87-MG cells; [11]", "result": "0,86 and 0,93 and 0,8 and 0,82 and 0,85"}, {"measurement": "Calicum signal (dF/F0)", "setting": "U87-MG cells; [12]", "result": "0,98 (2×) and 0,94 and 1,8 and 0,96"}, {"measurement": "Calicum signal (dF/F0)", "setting": "U87-MG cells; [13]", "result": "0,62 (3×) and 0,55 and 0,58"}, {"measurement": "Calicum signal (dF/F0)", "setting": "U87-MG cells; [14]", "result": "0,71 and 0,66 and 0,58 and 0,5 and 0,63"}, {"measurement": "Calicum signal (dF/F0)", "setting": "U87-MG cells; Log Concentration (M) -9,5, single replicate values, listed as f-MVPIK(Ahx-DOTA-Lu)I", "result": "0,06 (2×) and 0,07 and 0,09 and 0,01"}, {"measurement": "Calicum signal (dF/F0)", "setting": "U87-MG cells; [15]", "result": "0,12 (2×) and 0,21 and 0,14 and 0,18"}]}, {"compound": "CC[C@H](C)[C@H](NC(=O)[C@H](CCCCNC(=O)CCCCCNC(=O)CN1CCN(CC(=O)O)CCN(CC(=O)O)CCN(CC(=O)O)CC1)NC(=O)[C@@H](NC(=O)[C@@H]1CCCN1C(=O)[C@@H](NC(=O)[C@H](CCSC)NC=O)C(C)C)[C@@H](C)CC)C(=O)O", "note": "[f-MVPIK(Ahx-DOTA)I] (For-MVPIK([Ahx-DOTA])I-OH)", "values": [{"measurement": "EC50", "setting": "FPR1", "result": "23 ± 2", "unit": "nM"}, {"measurement": "EC50", "setting": "U87-MG cells", "result": "5.6 ± 0.9", "unit": "nM"}]}, {"compound": "f-MLFKYS", "values": [{"measurement": "sensitivity to FPR1 compared with FPR2 (calcium)", "setting": "FPR1; FPR1 vs FPR2", "result": "very similar sensitivity to FPR1 and FPR2"}]}]}
